# Measured values from patent publication US20160113932A1, “TREATMENT OF CANCERS USING PI3 KINASE ISOFORM MODULATORS” (INFINITY PHARMACEUTICALS, INC., priority 2013, published 2016).
# Columns and labels:
# RPMI-8226 = assay: Combination with BTK inhibitor, 72 h ATPLite, 6x6 dose matrix (multiple myeloma); type: cell-based; conditions: in combination with Compound 292
# Experimental: (§1) The method is described as follows. Cells are thawed from a liquid nitrogen preserved state. Once cells have been expanded and divide at their expected doubling times, screening begins. Cells are seeded in growth media in either black 1536-well or 384-well tissue culture treated plates. […] These Tzero (T0) plates are read using ultra-sensitive luminescence on Envision plate readers (Perkin Elmer). […] All data points are collected via automated processes, quality controlled and analyzed using Zalicus software.
# (§2) I ranges from 0% (when T=V) to 100% (when T=0). […] The measure of effect in the experiment can be the inhibition of cellular response relative to the untreated level (vehicle alone). For untreated vehicle and treated levels V and T, a fractional inhibition 1=1−T/V is calculated. The inhibition ranges from 0% at the untreated level to 100% when T=0 Inhibition levels are negative for agents that actually increase levels. Other effect measures, such as an activity ratio r=T/V may be more appropriate for some assays. When activity ratios (e.g, fold increase over […] control) are being used, the effect can be measured using an induction I=1n(T/V). With this definition, all effect expressions are the same as for inhibition.
# (§3) Growth Inhibition (GI) is used as a measure of cell viability. […] A GI reading of 100% represents complete growth inhibition-T72 compound-treated and T0 vehicle signals are matched. […] A GI reading of 200% represents complete death of all cells in the culture well. Compounds reaching an activity plateau of GI 200% are considered cytotoxic. GI is calculated by applying the following test and equation: […]
# (§4) Combination analysis data were collected in a 6×6 dose matrix. Synergy is calculated by comparing a combination's response to those of its single compound, against the drug-with-itself dose-additive reference model. Deviations from dose additivity may be assessed visually on an isobologram or numerically with a Combination Index (CI). […] Additive effect is CI=1.0. […] Antagonistic effect is CI>1.0.
# (§5) To measure combination effects in excess of Loewe additivity, a scalar measure to characterize the strength of synergistic interaction termed the Synergy Score is devised. The Synergy Score is calculated as: […]
# The fractional inhibition for each component agent and combination point in the matrix is calculated relative to the median of all vehicle-treated control wells. The Synergy Score equation integrates the experimentally-observed activity volume at each point in the matrix in excess of a model surface numerically derived from the activity of the component agents using the Loewe model for additivity. […]
# OCI-LY3 = conditions: in combination with Compound 292
# Experimental: as §1, §2, §3, §4, §5
# (§6) The fractional inhibition for each component agent and combination point in the matrix is calculated relative to the median of all vehicle-treated control wells. The Synergy Score equation integrates the experimentally-observed activity volume at each point in the matrix in excess of a model surface numerically derived from the activity of the component agents using the Loewe model for additivity. Additional terms in the Synergy Score equation (above) are used to normalize for various dilution factors used for individual agents and to allow for comparison of synergy scores across an entire experiment. The inclusion of positive inhibition gating or an Idata multiplier removes noise near the zero effect level, and biases results for synergistic interactions at that occur at high activity levels.
# (§7) Loewe Volume (Loewe Vol) is used to assess the overall magnitude of the combination interaction in excess of the Loewe additivity model. Loewe Volume is particularly useful when distinguishing synergistic increases in a phenotypic activity (positive Loewe Volume) versus synergistic antagonisms (negative Loewe Volume). […] This model defines additivity as a non-synergistic combination interaction where the combination dose matrix surface should be indistinguishable from either drug crossed with itself.
# OPM-2 = conditions: in combination with Compound 292
# Experimental: as §1, §2, §3, §4, §5, §6, §7
# Jeko-1 = conditions: in combination with Compound 292
# Experimental: as §1, §2, §3, §4, §5, §6, §7
# Farage = conditions: in combination with Compound 292
# Experimental: as §1, §2, §3, §4, §5, §6, §7
# GRANTA-519 = conditions: in combination with Compound 292
# Experimental: as §1, §2, §3, §4, §5, §6, §7
# NCI-H929 = conditions: in combination with Compound 292
# Experimental: as §1, §2, §3, §4, §5, §6, §7
# Mino = conditions: in combination with Compound 292
# Experimental: as §1, §2, §3, §4, §5, §6, §7
# KARPAS-422 = conditions: in combination with Compound 292
# Experimental: as §1, §2, §3, §4, §5, §6, §7
# SU-DHL-10-epst = conditions: in combination with Compound 292
# Experimental: as §1, §2, §3, §4, §5, §6, §7
# KARPAS-299 = conditions: in combination with Compound 292
# Experimental: as §1, §2, §3, §4, §5, §6, §7
# SU-DHL-4-epst = conditions: in combination with Compound 292
# Experimental: as §1, §2, §3, §4, §5, §6, §7
# HBL-1 = conditions: in combination with Compound 292
# Experimental: as §1, §2, §3, §4, §5, §6, §7
# HH = conditions: in combination with Compound 292
# Experimental: as §1, §2, §3, §4, §5, §6, §7
# TMD8 = conditions: in combination with Compound 292
# Experimental: as §1, §2, §3, §4, §5, §6, §7
# WSU-NHL = conditions: in combination with Compound 292
# Experimental: as §1, §2, §3, §4, §5, §6, §7
# DOHH-2 = conditions: in combination with Compound 292
# Experimental: as §1, §2, §3, §4, §5, §6, §7
# U-2932 = conditions: in combination with Compound 292
# Experimental: as §1, §2, §3, §4, §5, §6, §7
# OCI-Ly7 = conditions: in combination with Compound 292
# Experimental: as §1, §2, §3, §4, §5, §6, §7
# RL = assay: Combination with BTK inhibitor, 72 h ATPLite, 6x6 dose matrix (follicular lymphoma); type: cell-based; conditions: in combination with Compound 292
# Experimental: as §1, §2, §3, §4, §5, §6, §7
# PI3K α = target: T1, PI3K α (Homo sapiens, UniProt P42336); assay: PI3K lipid kinase inhibition assay (TLC or HTRF), PI3K α; type: biochemical; conditions: In Vitro
# T1 construct: purchased Upstate
# T1 sequence (P42336 whole entry): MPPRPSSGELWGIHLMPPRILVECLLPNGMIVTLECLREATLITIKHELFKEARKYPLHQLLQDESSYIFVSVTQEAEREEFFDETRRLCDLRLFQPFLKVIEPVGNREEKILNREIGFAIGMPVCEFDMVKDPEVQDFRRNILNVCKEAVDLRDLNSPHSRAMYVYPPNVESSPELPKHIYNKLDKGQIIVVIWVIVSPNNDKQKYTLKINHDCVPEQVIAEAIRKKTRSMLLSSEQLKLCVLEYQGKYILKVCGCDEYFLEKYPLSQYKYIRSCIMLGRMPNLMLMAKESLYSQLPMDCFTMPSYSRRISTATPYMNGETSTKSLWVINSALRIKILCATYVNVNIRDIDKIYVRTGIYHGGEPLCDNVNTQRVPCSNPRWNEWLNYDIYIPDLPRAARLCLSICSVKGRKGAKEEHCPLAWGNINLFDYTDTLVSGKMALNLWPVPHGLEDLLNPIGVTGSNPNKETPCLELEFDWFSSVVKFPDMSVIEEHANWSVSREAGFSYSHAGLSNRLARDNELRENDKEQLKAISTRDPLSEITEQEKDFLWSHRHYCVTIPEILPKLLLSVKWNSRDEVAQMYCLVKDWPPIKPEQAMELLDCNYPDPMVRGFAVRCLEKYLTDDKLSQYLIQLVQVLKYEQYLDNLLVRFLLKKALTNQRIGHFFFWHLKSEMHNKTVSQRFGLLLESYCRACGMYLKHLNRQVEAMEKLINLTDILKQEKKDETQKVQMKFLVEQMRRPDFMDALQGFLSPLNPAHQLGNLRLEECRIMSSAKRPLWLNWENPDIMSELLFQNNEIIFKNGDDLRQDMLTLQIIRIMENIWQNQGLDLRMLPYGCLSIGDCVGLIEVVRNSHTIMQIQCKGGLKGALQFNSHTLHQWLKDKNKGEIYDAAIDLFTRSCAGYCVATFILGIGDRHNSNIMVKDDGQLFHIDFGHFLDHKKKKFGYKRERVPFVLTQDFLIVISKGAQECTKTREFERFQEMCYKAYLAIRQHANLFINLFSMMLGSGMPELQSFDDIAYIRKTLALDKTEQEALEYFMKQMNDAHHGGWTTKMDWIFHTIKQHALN
# T1 sequence (P27986 whole entry partner): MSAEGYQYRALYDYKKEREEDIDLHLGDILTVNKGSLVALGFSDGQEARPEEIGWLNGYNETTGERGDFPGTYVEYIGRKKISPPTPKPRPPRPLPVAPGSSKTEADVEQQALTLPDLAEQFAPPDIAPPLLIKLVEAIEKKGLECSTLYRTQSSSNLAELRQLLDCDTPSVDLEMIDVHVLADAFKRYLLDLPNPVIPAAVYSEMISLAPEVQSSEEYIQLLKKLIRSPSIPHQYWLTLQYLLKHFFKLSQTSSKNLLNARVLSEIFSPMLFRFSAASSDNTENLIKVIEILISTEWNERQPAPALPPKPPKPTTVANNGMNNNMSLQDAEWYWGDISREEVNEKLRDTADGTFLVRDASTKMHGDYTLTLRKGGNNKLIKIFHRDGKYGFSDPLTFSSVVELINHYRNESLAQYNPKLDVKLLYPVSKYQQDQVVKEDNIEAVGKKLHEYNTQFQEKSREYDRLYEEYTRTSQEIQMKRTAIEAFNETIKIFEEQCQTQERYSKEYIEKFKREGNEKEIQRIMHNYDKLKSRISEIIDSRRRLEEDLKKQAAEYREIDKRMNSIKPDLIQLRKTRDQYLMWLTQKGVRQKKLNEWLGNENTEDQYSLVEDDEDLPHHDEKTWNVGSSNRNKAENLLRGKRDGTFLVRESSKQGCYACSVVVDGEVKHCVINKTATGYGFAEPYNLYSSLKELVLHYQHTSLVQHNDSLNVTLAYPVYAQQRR
# Excerpt: (§8) Other commercial kits or systems for assaying PI3K activities are available. […] An exemplary system is PI 3-Kinase (human) HTRF™ Assay from Upstate.
# PI3K β = target: T2, PI3K β (Homo sapiens, UniProt P42338); assay: PI3K lipid kinase inhibition assay (TLC or HTRF), PI3K β; type: biochemical; conditions: In Vitro
# T2 construct: purchased Upstate
# T2 sequence (P42338 whole entry): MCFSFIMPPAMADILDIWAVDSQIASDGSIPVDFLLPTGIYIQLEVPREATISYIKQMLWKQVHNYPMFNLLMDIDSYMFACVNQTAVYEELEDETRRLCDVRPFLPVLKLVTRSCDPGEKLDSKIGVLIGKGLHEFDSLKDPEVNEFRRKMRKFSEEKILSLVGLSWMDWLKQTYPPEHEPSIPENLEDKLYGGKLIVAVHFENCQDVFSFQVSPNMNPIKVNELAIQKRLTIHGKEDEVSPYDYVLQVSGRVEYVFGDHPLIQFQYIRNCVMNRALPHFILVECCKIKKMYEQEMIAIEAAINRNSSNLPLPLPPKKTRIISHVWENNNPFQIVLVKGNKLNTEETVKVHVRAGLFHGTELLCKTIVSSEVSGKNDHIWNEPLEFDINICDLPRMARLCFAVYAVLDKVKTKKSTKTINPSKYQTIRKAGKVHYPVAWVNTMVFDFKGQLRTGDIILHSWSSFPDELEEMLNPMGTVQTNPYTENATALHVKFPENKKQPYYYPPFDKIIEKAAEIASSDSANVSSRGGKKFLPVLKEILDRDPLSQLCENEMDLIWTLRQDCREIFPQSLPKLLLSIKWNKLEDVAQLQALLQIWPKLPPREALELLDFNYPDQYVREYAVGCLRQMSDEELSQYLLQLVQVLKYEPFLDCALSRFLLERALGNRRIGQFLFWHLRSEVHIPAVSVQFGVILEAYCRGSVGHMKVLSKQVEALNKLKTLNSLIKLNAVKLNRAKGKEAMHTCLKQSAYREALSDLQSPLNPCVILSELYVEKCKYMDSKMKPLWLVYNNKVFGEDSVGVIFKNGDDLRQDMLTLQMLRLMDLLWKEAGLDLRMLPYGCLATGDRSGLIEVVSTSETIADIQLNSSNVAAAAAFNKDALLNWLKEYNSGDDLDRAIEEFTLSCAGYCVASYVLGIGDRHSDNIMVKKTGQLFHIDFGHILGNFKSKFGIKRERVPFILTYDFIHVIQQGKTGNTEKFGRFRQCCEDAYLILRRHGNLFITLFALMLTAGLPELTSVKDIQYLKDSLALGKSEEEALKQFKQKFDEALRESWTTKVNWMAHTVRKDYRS
# T2 sequence (P27986 whole entry partner): as the sequence (P27986 whole entry partner) above
# Excerpt: as §8
# PI3K γ = target: T3, PI3K γ (Homo sapiens, UniProt P48736); assay: PI3K lipid kinase inhibition assay (TLC or HTRF), PI3K γ; type: biochemical; conditions: In Vitro
# T3 construct: purchased Sigma
# T3 sequence (P48736 whole entry): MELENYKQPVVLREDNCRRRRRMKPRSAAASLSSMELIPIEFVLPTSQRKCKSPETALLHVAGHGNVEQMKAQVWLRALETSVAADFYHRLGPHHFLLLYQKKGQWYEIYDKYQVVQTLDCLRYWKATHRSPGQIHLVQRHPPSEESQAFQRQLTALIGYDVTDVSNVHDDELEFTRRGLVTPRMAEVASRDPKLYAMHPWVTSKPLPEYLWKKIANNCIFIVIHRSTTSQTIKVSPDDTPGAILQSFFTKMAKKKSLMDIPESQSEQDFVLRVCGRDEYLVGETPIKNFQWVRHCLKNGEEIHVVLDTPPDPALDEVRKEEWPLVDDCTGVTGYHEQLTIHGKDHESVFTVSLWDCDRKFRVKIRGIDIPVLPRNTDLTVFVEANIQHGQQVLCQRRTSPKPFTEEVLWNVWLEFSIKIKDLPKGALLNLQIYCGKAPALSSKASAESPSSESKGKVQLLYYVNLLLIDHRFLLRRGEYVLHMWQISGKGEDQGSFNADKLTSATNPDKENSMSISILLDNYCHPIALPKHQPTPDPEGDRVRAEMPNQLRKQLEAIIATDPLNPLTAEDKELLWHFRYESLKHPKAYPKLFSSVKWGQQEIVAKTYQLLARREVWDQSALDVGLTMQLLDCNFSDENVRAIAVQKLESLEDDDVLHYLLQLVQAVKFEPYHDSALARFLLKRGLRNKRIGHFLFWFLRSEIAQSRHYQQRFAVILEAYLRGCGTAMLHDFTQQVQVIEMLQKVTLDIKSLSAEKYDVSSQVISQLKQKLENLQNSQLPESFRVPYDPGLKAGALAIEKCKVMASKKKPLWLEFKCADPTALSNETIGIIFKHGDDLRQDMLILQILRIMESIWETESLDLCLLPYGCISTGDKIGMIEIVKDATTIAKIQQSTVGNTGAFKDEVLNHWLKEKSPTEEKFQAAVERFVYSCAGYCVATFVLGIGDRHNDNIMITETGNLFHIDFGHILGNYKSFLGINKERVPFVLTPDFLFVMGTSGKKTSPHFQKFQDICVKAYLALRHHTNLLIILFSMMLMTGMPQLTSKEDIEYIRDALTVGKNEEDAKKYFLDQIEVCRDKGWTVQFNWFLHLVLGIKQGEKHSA
# Excerpt: as §8
structure (smiles),measurement,setting,value
"C=CC(=O)Nc1cccc(Nc2nc(Nc3ccc(OCCOC)cc3)ncc2F)c1 [AVL-292, N-(3-((5-fluoro-2-((4-(2-methoxyethoxy)phenyl)amino)pyrimidin-4-yl)amino)phenyl)acrylamide]",CI50 (growth inhibition),RPMI-8226,U (U=0.7 to <1)
same,CI50 (inhibition),RPMI-8226,W (W=≧1)
same,Synergy Score (growth inhibition),RPMI-8226,A1 (A1=0.0001 to <1)
same,Synergy Score (inhibition),RPMI-8226,A1 (A1=0.0001 to <1)
same,CI50 (growth inhibition),OCI-LY3,U (U=0.7 to <1)
same,Synergy Score (growth inhibition),OCI-LY3,A1 (A1=0.0001 to <1)
same,Synergy Score (inhibition),OCI-LY3,A1 (A1=0.0001 to <1)
same,CI50 (growth inhibition),OPM-2,T (T=0.5 to <0.7)
same,CI50 (inhibition),OPM-2,U (U=0.7 to <1)
same,Synergy Score (growth inhibition),OPM-2,A2 (A2=1 to <3)
same,Synergy Score (inhibition),OPM-2,A1 (A1=0.0001 to <1)
same,CI50 (growth inhibition),Jeko-1,U (U=0.7 to <1)
same,CI50 (inhibition),Jeko-1,U (U=0.7 to <1)
same,Synergy Score (growth inhibition),Jeko-1,A1 (A1=0.0001 to <1)
same,Synergy Score (inhibition),Jeko-1,A1 (A1=0.0001 to <1)
same,CI50 (growth inhibition),Farage,S (S=0.01 to <0.5)
same,CI50 (inhibition),Farage,S (S=0.01 to <0.5)
same,Synergy Score (growth inhibition),Farage,A3 (A3=>3)
same,Synergy Score (inhibition),Farage,A2 (A2=1 to <3)
same,CI50 (growth inhibition),GRANTA-519,W (W=≧1)
same,Synergy Score (growth inhibition),GRANTA-519,A1 (A1=0.0001 to <1)
same,Synergy Score (inhibition),GRANTA-519,A1 (A1=0.0001 to <1)
same,CI50 (growth inhibition),NCI-H929,U (U=0.7 to <1)
same,CI50 (inhibition),NCI-H929,U (U=0.7 to <1)
same,Synergy Score (growth inhibition),NCI-H929,A2 (A2=1 to <3)
same,Synergy Score (inhibition),NCI-H929,A1 (A1=0.0001 to <1)
same,CI50 (growth inhibition),Mino,S (S=0.01 to <0.5)
same,CI50 (inhibition),Mino,S (S=0.01 to <0.5)
same,Synergy Score (growth inhibition),Mino,A3 (A3=>3)
same,Synergy Score (inhibition),Mino,A2 (A2=1 to <3)
same,CI50 (growth inhibition),KARPAS-422,U (U=0.7 to <1)
same,CI50 (inhibition),KARPAS-422,T (T=0.5 to <0.7)
same,Synergy Score (growth inhibition),KARPAS-422,A2 (A2=1 to <3)
same,Synergy Score (inhibition),KARPAS-422,A1 (A1=0.0001 to <1)
same,CI50 (growth inhibition),SU-DHL-10-epst,T (T=0.5 to <0.7)
same,CI50 (inhibition),SU-DHL-10-epst,T (T=0.5 to <0.7)
same,Synergy Score (growth inhibition),SU-DHL-10-epst,A3 (A3=>3)
same,Synergy Score (inhibition),SU-DHL-10-epst,A2 (A2=1 to <3)
same,CI50 (growth inhibition),KARPAS-299,U (U=0.7 to <1)
same,Synergy Score (growth inhibition),KARPAS-299,A1 (A1=0.0001 to <1)
same,Synergy Score (inhibition),KARPAS-299,A1 (A1=0.0001 to <1)
same,CI50 (growth inhibition),SU-DHL-4-epst,T (T=0.5 to <0.7)
same,CI50 (inhibition),SU-DHL-4-epst,S (S=0.01 to <0.5)
same,Synergy Score (growth inhibition),SU-DHL-4-epst,A2 (A2=1 to <3)
same,Synergy Score (inhibition),SU-DHL-4-epst,A2 (A2=1 to <3)
same,CI50 (growth inhibition),HBL-1,T (T=0.5 to <0.7)
same,CI50 (inhibition),HBL-1,W (W=≧1)
same,Synergy Score (growth inhibition),HBL-1,A2 (A2=1 to <3)
same,Synergy Score (inhibition),HBL-1,A1 (A1=0.0001 to <1)
same,CI50 (growth inhibition),HH,T (T=0.5 to <0.7)
same,CI50 (inhibition),HH,U (U=0.7 to <1)
same,Synergy Score (growth inhibition),HH,A2 (A2=1 to <3)
same,Synergy Score (inhibition),HH,A2 (A2=1 to <3)
same,CI50 (growth inhibition),TMD8,S (S=0.01 to <0.5)
same,CI50 (inhibition),TMD8,S (S=0.01 to <0.5)
same,Synergy Score (growth inhibition),TMD8,A3 (A3=>3)
same,Synergy Score (inhibition),TMD8,A2 (A2=1 to <3)
same,CI50 (growth inhibition),WSU-NHL,T (T=0.5 to <0.7)
same,CI50 (inhibition),WSU-NHL,S (S=0.01 to <0.5)
same,Synergy Score (growth inhibition),WSU-NHL,A3 (A3=>3)
same,Synergy Score (inhibition),WSU-NHL,A2 (A2=1 to <3)
same,CI50 (growth inhibition),DOHH-2,T (T=0.5 to <0.7)
same,CI50 (inhibition),DOHH-2,T (T=0.5 to <0.7)
same,Synergy Score (growth inhibition),DOHH-2,A3 (A3=>3)
same,Synergy Score (inhibition),DOHH-2,A2 (A2=1 to <3)
same,CI50 (growth inhibition),U-2932,T (T=0.5 to <0.7)
same,CI50 (inhibition),U-2932,W (W=≧1)
same,Synergy Score (growth inhibition),U-2932,A2 (A2=1 to <3)
same,Synergy Score (inhibition),U-2932,A1 (A1=0.0001 to <1)
same,CI50 (growth inhibition),OCI-Ly7,W (W=≧1)
same,Synergy Score (growth inhibition),OCI-Ly7,A1 (A1=0.0001 to <1)
same,Synergy Score (inhibition),OCI-Ly7,A1 (A1=0.0001 to <1)
same,Synergy Score (growth inhibition),RL,A1 (A1=0.0001 to <1)
same,Synergy Score (inhibition),RL,A1 (A1=0.0001 to <1)
CC(=O)Nc1nc2ccc(-c3nn(Cc4cc5cccc(C)c5c(=O)n4-c4ccccc4C)c4ncnc(N)c34)cc2s1 [Compound 168],IC50,PI3K α,< 10000 nM
Cc1cccc2cc(Cn3nc(-c4ccc5nc(N)oc5c4)c4c(N)ncnc43)n(-c3ccccc3)c(=O)c12 [Compound 235],IC50,PI3K β,< 10000 nM
same,IC50,PI3K γ,< 100 nM
same,IC50,PI3K α,< 10000 nM
